Tests used:
p38-MAPK = p38-MAPK phosphorylation in ME lysates after intestinal manipulation (immunoblot); assay type: in vivo, C57BL/6J mice; details: 5 mg/kg i.v. preoperative; 30 minutes after operation; compared to placebo group
Text: The small bowel of the animals was subjected to a standardized, surgical manipulation (IM) as described previously (Kalff J C, Schraut W H, Simmons R L et al. Surgical manipulation of the gut elicits an intestinal muscularis inflammatory response resulting in postsurgical ileus. Ann Surg 1998; 228:652-663; Wehner S, Schwarz N T, Hundsdoerfer R et al. Induction of IL-6 within the rodent intestinal muscularis after intestinal surgical stress. Surgery 2005; 137:436-446). In brief, after anesthesia a midline abdominal incision was made into the peritoneal cavity. The entire small bowel was eventuated and manipulated with standardized moderate intensity using two moist cotton applicators as described previously. After IM, the laparotomy was closed by one layer of continuous suture, except when probe sampling was conducted within 20 minutes after surgery. […]
p38-MAPK and JNK/SAPK phosphorylation were analyzed in C57BL/6J mice 15, 30 and 60 minutes after IM and in unoperated controls. […] Finally, the sonicated samples were centrifuged at 13.000×g for 10 minutes, and total protein concentration was determined with Pierce BCA protein assay (Perbio, Bonn, Germany). […]
After PAGE, proteins were blotted on Immobilon-P […] PVDF membranes. […] Chemiluminscence signals were detected with a LAS 4000 system (Fujifilm, Duesseldorf, Germany).

Lewis rats = assay: Intestinal injury (Park score) after syngeneic orthotopic small intestinal transplantation; assay type: in vivo; details: 1 mg/kg i.v. to donor and recipient
Experimental: Syngeneic orthotopic small intestinal transplantation was performed in Lewis rats as previously described (Schwarz N T, Nakao A, Nalesnik M A, Kalff J C, Murase N, Bauer A J. Protective effects of ex vivo graft radiation and tacrolimus on syngeneic transplanted rat small bowel motility. Surgery 2002; 131: 413-423). […] Then the graft vascular bed was perfused with chilled UW solution (University of Wisconcin) and the intestinal lumen was irrigated with 50 ml cold 0.9% NaCl solution containing […]. neomycin sulfate (Uro Nebacetin N, Nycomed, Germany). The graft was stored in cold UW solution during the preparation of the recipient. An end-to-side anastomosis between the graft aorta and the recipient infra-renal aorta, and between the graft vein and recipient vena cava, was performed. Approximately 80% of the recipient intestine was removed and enteric continuity was restored by proximal and distal end-to-end intestinal anastomoses. […]
Histological changes and intestinal injury were graded by determination of the Park score 3 and 18 hours after reperfusion. […] Probes were analyzed in a blinded way.
Syngeneic orthotopic small intestinal transplantation was performed as described above and histological changes and intestinal injury were graded by determination of the Park score 3 and 18 hours after reperfusion. […] Probes were analyzed in a blinded way.

| SMILES | upregulation of p38-MAPK phosphorylation by IM (p38-MAPK) | Park's score (Lewis rats; 3 hours after reperfusion) | Park's score (Lewis rats; 18 hours after reperfusion) |
| --- | --- | --- | --- |
| C/C(=N\N=C(N)N)c1cc(NC(=O)CCCCCCCCC(=O)Nc2cc(/C(C)=N/N=C(N)N)cc(/C(C)=N/N=C(N)N)c2)cc(/C(C)=N/N=C(N)N)c1.Cl.Cl.Cl.Cl [CNI-1493] | reduced near to control levels |  |  |
| C/C(=N\N=C(N)N)c1cc(NC(=O)CCCCCCCCC(=O)Nc2cc(/C(C)=N/N=C(N)N)cc(/C(C)=N/N=C(N)N)c2)cc(/C(C)=N/N=C(N)N)c1.CS(=O)(=O)O.CS(=O)(=O)O.CS(=O)(=O)O.CS(=O)(=O)O [CPSI-2364] |  | 1.83 | 1.5 |
